Laboratory results reported in US20250092039A1, “GLUTARIMIDE-CONTAINING PAN-KRAS-MUTANT DEGRADER COMPOUNDS AND USES THEREOF” (Tiger Biotherapeutics Inc., priority 2022, published 2025).

Key:
[1] = target: KRAS G12V (Homo sapiens (Human), UniProt P01116, G12V); test: KRAS G12V degradation in SW620 cells (Western blot, DC50); format: cell-based; conditions: 24 hours
Protocol: SW620 (KRAS G12V homozygous), AsPC1 (KRAS G12D homozygous), MIA PaCa2 (KRAS G12C homozygous), A549 (KRAS G12S homozygous) and MCF7 (KRAS WT) cells were obtained from American Type Culture Collection (ATCC). […] The following day, the test compound was administered to the cells by using 1000× compound stock solution prepared in DMSO at various concentrations. After administration of the compound, the cells were then incubated at 37° C. for 24 hours. Upon completion, the cells were washed with PBS and protein was collected in Laemmli sample buffer (1×; VWR International). Proteins in cell lysate were separated by SDS-PAGE and transferred to Odyssey nitrocellulose membranes (Licor) with iblot® dry blotting transfer system (ThermoFisher). Nonspecific binding was blocked by incubating membranes with Intercept Blocking Buffer (Licor) for 1 hour at room temperature with gentle shaking. […] After washing 3 times with TBS-T, the membranes were incubated with IRDye® 800CW goat anti-rabbit IgG (1:20,000, Licor) and IRDye® 680RD goat anti-mouse IgG (1:20,000, Licor) for 1 hour. After TBS-T washes, membranes were rinsed in TBS and Western blot images were acquired by Odyssey CLx (LI-COR Biosciences).
The signal intensity of target proteins was calculated using ImageStudio software. KRAS fluorescent intensity (FLU) from DMSO (vehicle) treatment was set as 100%. Relative KRAS expression level was determined by the following formula: […]
The percentage of KRAS expression was calculated using Microsoft Excel. The half-maximal degradation concentration (DCso) values were generated by GraphPad Prism (Version 9) using the dose-response equation of variable slope (four parameters).

[2] = target: KRAS-G12V/RAF1 (Homo sapiens (Human), UniProt P01116, G12V); test: KRAS/RAF1 binding inhibition assay (AlphaScreen)
Sequence of KRAS-G12V/RAF1 (P01116-2 other isoform, or with tags, fused parts or gaps G12V): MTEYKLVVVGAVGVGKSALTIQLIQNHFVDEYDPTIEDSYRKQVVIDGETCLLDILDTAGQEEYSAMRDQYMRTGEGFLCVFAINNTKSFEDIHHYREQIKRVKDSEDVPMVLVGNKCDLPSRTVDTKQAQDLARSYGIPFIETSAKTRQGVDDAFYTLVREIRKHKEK
Protocol: Binding affinity against GTP-bound KRAS of the compounds disclosed herein was measured by monitoring the interaction of guanosine 5′-[β,γ-imido]triphosphate-bound (GppNHp-bound) KRAS with the RBD domain of RAF1 in the presence of the test compound. […] The test compounds in 2% DMSO (final concentration) at various concentrations were then added to the reaction mixture and incubated for 60 minutes at 4° C.
Raw ALphaScreen data were converted to a percentage of inhibition (relative to DMSO) using the following equations: • a) For a given test compound concentration X: […]
The IC50 values were determined by nonlinear regression of plots of [inhibitor] vs. percentage of inhibition with variable slope, analyzed using GraphPad Prism (Version 9).

Sequence of KRAS G12V (P01116-2 other isoform, or with tags, fused parts or gaps G12V): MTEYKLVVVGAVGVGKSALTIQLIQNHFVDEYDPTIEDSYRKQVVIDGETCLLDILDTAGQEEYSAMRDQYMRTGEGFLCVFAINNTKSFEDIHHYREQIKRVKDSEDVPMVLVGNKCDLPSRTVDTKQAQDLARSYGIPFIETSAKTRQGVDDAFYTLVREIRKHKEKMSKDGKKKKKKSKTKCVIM

SMILES | DC50 [1] [nM] | IC50 [2] [nM]
CCc1c(F)ccc2cc(O)cc(-c3ncc4c(N5CCCC6(CC(O)C6)C5)nc(OCC5(CN6CCC7(CC6)CC(CN6CCN(c8ccc9c(c8)CN([C@H]8CCC(=O)NC8=O)C9=O)CC6)C7)CC5)nc4c3F)c12 [Compound 97, (S)-3-(5-(4-((7-((1-(((7-(8-ethyl-7-fluoro-3-hydroxynaphthalen-1-yl)-8-fluoro-4-(2-hydroxy-6-azaspiro[3.5]nonan-6-yl)pyrido[4,3-d]pyrimidin-2-yl)oxy)methyl)cyclopropyl)methyl)-7-azaspiro[3.5]nonan-2-yl)methyl)piperazin-1-yl)-1-oxoisoindolin-2-yl)piperidine-2,6-dione] | > 100 | > 200
CCc1cccc2cc(O)cc(-c3ncc4c(N5CCCn6nc(C(=O)N(C)C)c(Cl)c6C5)nc(OCC5(CN6CCC7(CC6)CC(CN6CCN(c8ccc9c(c8)CN([C@H]8CCC(=O)NC8=O)C9=O)CC6)C7)CC5)nc4c3F)c12 [Compound 102, (S)-3-chloro-5-(2-((1-((2-((4-(2-(2,6-dioxopiperidin-3-yl)-1-oxoisoindolin-5-yl)piperazin-1-yl)methyl)-7-azaspiro[3.5]nonan-7-yl)methyl)cyclopropyl)methoxy)-7-(8-ethyl-3-hydroxynaphthalen-1-yl)-8-fluoropyrido[4,3-d]pyrimidin-4-yl)-N,N-dimethyl-5,6,7,8-tetrahydro-4H-pyrazolo[1,5-a][1,4]diazepine-2-carboxamide] | < 1 | > 200
C[C@@]1(O)CCCN(c2nc(OCC3(CN4CCC(CN5CCN(c6ccc7c(c6)CN([C@H]6CCC(=O)NC6=O)C7=O)CC5)CC4)CC3)nc3c(F)c(-c4cc(O)cc5ccc(F)c(F)c45)ncc23)C1 [Compound 111, (S)-3-(5-(4-((1-((1-(((7-(7,8-difluoro-3-hydroxynaphthalen-1-yl)-8-fluoro-4-((R)-3-hydroxy-3-methylpiperidin-1-yl)pyrido[4,3-d]pyrimidin-2-yl)oxy)methyl)cyclopropyl)methyl)piperidin-4-yl)methyl)piperazin-1-yl)-1-oxoisoindolin-2-yl)piperidine-2,6-dione] | 1 to 10 | 20 to 200
CCc1cccc2cc(O)cc(-c3ncc4c(N5C[C@@H]6C[C@H](C5)[C@H](O)C6)nc(OCC5(CN6CCC7(CC6)CC(CN6CCN(c8ccc9c(c8)CN([C@H]8CCC(=O)NC8=O)C9=O)CC6)C7)CC5)nc4c3F)c12 [Compound 101, (S)-3-(5-(4-((7-((1-(((7-(8-ethyl-3-hydroxynaphthalen-1-yl)-8-fluoro-4-((1R,5R,6R)-6-hydroxy-3-azabicyclo[3.2.1]octan-3-yl)pyrido[4,3-d]pyrimidin-2-yl)oxy)methyl)cyclopropyl)methyl)-7-azaspiro[3.5]nonan-2-yl)methyl)piperazin-1-yl)-1-oxoisoindolin-2-yl)piperidine-2,6-dione] | < 1 | > 200
CCc1c(F)ccc2cc(O)cc(-c3ncc4c(N5CCCn6nc(C(=O)N(C)C)c(Cl)c6C5)nc(OCC5(CN6CCC7(CC6)CC(CN6CCN(c8ccc9c(c8)CN([C@H]8CCC(=O)NC8=O)C9=O)CC6)C7)CC5)nc4c3F)c12 [Compound 94, (S)-3-chloro-5-(2-((1-((2-((4-(2-(2,6-dioxopiperidin-3-yl)-1-oxoisoindolin-5-yl)piperazin-1-yl)methyl)-7-azaspiro[3.5]nonan-7-yl)methyl)cyclopropyl)methoxy)-7-(8-ethyl-7-fluoro-3-hydroxynaphthalen-1-yl)-8-fluoropyrido[4,3-d]pyrimidin-4-yl)-N,N-dimethyl-5,6,7,8-tetrahydro-4H-pyrazolo[1,5-a][1,4]diazepine-2-carboxamide] | 1 to 10 | > 200
CCc1c(F)ccc2cc(O)cc(-c3ncc4c(N5CCCC(C)(F)C5)nc(OCC5(CN6CCC7(CC6)CC(CN6CCN(c8ccc9c(c8)CN([C@H]8CCC(=O)NC8=O)C9=O)CC6)C7)CC5)nc4c3F)c12 (stereo partly drawn) [Compound 132, (3S)-3-(5-(4-((7-((1-(((7-(8-ethyl-7-fluoro-3-hydroxynaphthalen-1-yl)-8-fluoro-4-(3-fluoro-3-methylpiperidin-1-yl)pyrido[4,3-d]pyrimidin-2-yl)oxy)methyl)cyclopropyl)methyl)-7-azaspiro[3.5]nonan-2-yl)methyl)piperazin-1-yl)-1-oxoisoindolin-2-yl)piperidine-2,6-dione] | > 100 | > 200

Other lines, results leading:

DC50 [1] [nM] | IC50 [2] [nM] | SMILES
> 100 | > 200 | CCc1cccc2cc(O)cc(-c3ncc4c(N5CCOC[C@](C)(O)C5)nc(OCC5(CN6CCC7(CC6)CC(CN6CCN(c8ccc9c(c8)CN([C@H]8CCC(=O)NC8=O)C9=O)CC6)C7)CC5)nc4c3F)c12 [Compound 107, (S)-3-(5-(4-((7-((1-(((7-(8-ethyl-3-hydroxynaphthalen-1-yl)-8-fluoro-4-((R)-6-hydroxy-6-methyl-1,4-oxazepan-4-yl)pyrido[4,3-d]pyrimidin-2-yl)oxy)methyl)cyclopropyl)methyl)-7-azaspiro[3.5]nonan-2-yl)methyl)piperazin-1-yl)-1-oxoisoindolin-2-yl)piperidine-2.6-dione]
1 to 10 | 20 to 200 | CCc1cccc2cc(O)cc(-c3ncc4c(N5CCOC[C@@](C)(O)C5)nc(OCC5(CN6CCC7(CC6)CC(CN6CCN(c8ccc9c(c8)CN([C@H]8CCC(=O)NC8=O)C9=O)CC6)C7)CC5)nc4c3F)c12 [Compound 106, (S)-3-(5-(4-((7-((1-(((7-(8-ethyl-3-hydroxynaphthalen-1-yl)-8-fluoro-4-((S)-6-hydroxy-6-methyl-1,4-oxazepan-4-yl)pyrido[4,3-d]pyrimidin-2-yl)oxy)methyl)cyclopropyl)methyl)-7-azaspiro[3.5]nonan-2-yl)methyl)piperazin-1-yl)-1-oxoisoindolin-2-yl)piperidine-2,6-dione]
1 to 10 | > 200 | CCc1c(F)ccc2cc(O)cc(-c3ncc4c(N5CCCC6(CC(O)C6)C5)nc(OCC5(CN6CCC(CN7CCN(c8ccc9c(c8)CN([C@H]8CCC(=O)NC8=O)C9=O)CC7)CC6)CC5)nc4c3F)c12 (stereo partly drawn) [Compound 98, (S)-3-(5-(4-((1-((1-(((7-(8-ethyl-7-fluoro-3-hydroxynaphthalen-1-yl)-8-fluoro-4-(2-hydroxy-6-azaspiro[3.5]nonan-6-yl)pyrido[4,3-d]pyrimidin-2-yl)oxy)methyl)cyclopropyl)methyl)piperidin-4-yl)methyl)piperazin-1-yl)-1-oxoisoindolin-2-yl)piperidine-2,6-dione]
> 100 | 20 to 200 | CCc1c(F)ccc2cc(O)cc(-c3ncc4c(N5CCC[C@]6(C5)C[C@@H](O)C6)nc(OCC5(CN6CCC7(CC6)CC(CN6CCN(c8ccc9c(c8)CN([C@H]8CCC(=O)NC8=O)C9=O)CC6)C7)CC5)nc4c3F)c12 [Compound 100, (S)-3-(5-(4-((7-((1-(((7-(8-ethyl-7-fluoro-3-hydroxynaphthalen-1-yl)-8-fluoro-4-((2r,4s)-2-hydroxy-6-azaspiro[3.5]nonan-6-yl)pyrido[4,3-d]pyrimidin-2-yl)oxy)methyl)cyclopropyl)methyl)-7-azaspiro[3.5]nonan-2-yl)methyl)piperazin-1-yl)-1-oxoisoindolin-2-yl)piperidine-2,6-dione]
> 100 | 20 to 200 | CCc1c(F)ccc2cc(O)cc(-c3ncc4c(N5CCC[C@]6(C5)C[C@H](O)C6)nc(OCC5(CN6CCC7(CC6)CC(CN6CCN(c8ccc9c(c8)CN([C@H]8CCC(=O)NC8=O)C9=O)CC6)C7)CC5)nc4c3F)c12 [Compound 99, (S)-3-(5-(4-((7-((1-(((7-(8-ethyl-7-fluoro-3-hydroxynaphthalen-1-yl)-8-fluoro-4-((2s,4r)-2-hydroxy-6-azaspiro[3.5]nonan-6-yl)pyrido[4,3-d]pyrimidin-2-yl)oxy)methyl)cyclopropyl)methyl)-7-azaspiro[3.5]nonan-2-yl)methyl)piperazin-1-yl)-1-oxoisoindolin-2-yl)piperidine-2,6-dione]
< 1 | > 200 | CCc1c(F)ccc2cc(O)cc(-c3ncc4c(N5C[C@@H]6C[C@H](C5)[C@H](O)C6)nc(OCC5(CN6CCC(CN7CCN(c8ccc9c(c8)CN([C@H]8CCC(=O)NC8=O)C9=O)CC7)CC6)CC5)nc4c3F)c12 (stereo in doubt) [Compound 96, (S)-3-(5-(4-((1-((1-(((7-(8-ethyl-7-fluoro-3-hydroxynaphthalen-1-yl)-8-fluoro-4-((1R,SR,6R)-6-hydroxy-3-azabicyclo[3.2.1]octan-3-yl)pyrido[4,3-d]pyrimidin-2-yl)oxy)methyl)cyclopropyl)methyl)piperidin-4-yl)methyl)piperazin-1-yl)-1-oxoisoindolin-2-yl)piperidine-2,6-dione]
